From ChEMBL document CHEMBL2062504, “Diterpenoid alkaloids from the lateral root of Aconitum carmichaelii” (J Nat Prod, 2012)
Activity calls are given as the source filed them.

Key:
Liver microsomes = test: Antioxidant activity in rat liver microsome assessed as inhibition of FeSO4-induced lipid peroxidation at 10 uM incubated for 15 mins prior to FeSO4-challenge measured after 15 mins by modified thiobarbituric acid method; format: functional
WB-F344 = test: Hepatoprotective activity against DL-galactosamine-induced cell death in rat WB-F344 cells at 10 uM incubated for 1 hr prior to DL-galactosamine-challenge measured after 24 hrs by MTT assay; format: functional, cell-based
[1] = test system: Peritoneal macrophage cell; test: Antiinflammatory activity in mouse peritoneal macrophages assessed as inhibition of nitric oxide production at 10 uM; format: functional, cell-based
BGC-823 = test: Cytotoxicity against human BGC823 cells at 10 uM after 96 hrs by MTT assay; format: functional, cell-based
A549 = test: Cytotoxicity against human A549 cells at 10 uM after 96 hrs by MTT assay; format: functional, cell-based
MCF7 = test: Cytotoxicity against human MCF7 cells at 10 uM after 96 hrs by MTT assay; format: functional, cell-based
KETR3 = test: Cytotoxicity against human Ketr3 cells at 10 uM after 96 hrs by MTT assay; format: functional, cell-based
Bel-7402 = test: Cytotoxicity against human Bel7402 cells at 10 uM after 96 hrs by MTT assay; format: functional, cell-based
HCT-8 = test: Cytotoxicity against human HCT8 cells at 10 uM after 96 hrs by MTT assay; format: functional, cell-based

C=C1C[C@]23C[C@H]4[C@@H]5[C@@]6(C)C[C@H](OC(=O)c7ccccc7)[C@@H](OC(C)=O)[C@]57C(C2[C@@H](O)[C@H]1[C@@H](OC(C)=O)[C@H]37)N4[C@H]6O
inactive: inhibition (Liver microsomes) | Activity (WB-F344) | inhibition [1] | Activity (BGC-823) | Activity (A549) | Activity (MCF7) | Activity (KETR3) | Activity (Bel-7402) | Activity (HCT-8)

COC[C@]12CN(C)C3[C@@H]4[C@H](OC)[C@H]1[C@@]3([C@@H](OC)C[C@H]2O)[C@]1(O)C[C@@]2(O)[C@H](OC(=O)c3ccccc3)[C@@H]1[C@]4(O)[C@@H](O)[C@H]2OC
inactive: inhibition (Liver microsomes) | Activity (WB-F344) | inhibition [1] | Activity (BGC-823) | Activity (A549) | Activity (MCF7) | Activity (KETR3) | Activity (Bel-7402) | Activity (HCT-8)

COC[C@]12CN(C)C3[C@@H]4[C@H](OC)[C@H]1[C@@]3([C@@H](OC)C[C@H]2OC(C)=O)[C@@H]1C[C@@]2(O)[C@H](OC(=O)c3ccccc3)[C@@H]1[C@]4(O)[C@@H](OC(C)=O)[C@@H]2OC
inactive: inhibition (Liver microsomes) | Activity (WB-F344) | inhibition [1] | Activity (BGC-823) | Activity (A549) | Activity (MCF7) | Activity (KETR3) | Activity (Bel-7402) | Activity (HCT-8)

COC[C@]12CN(C)C3[C@@H]4[C@H](OC)[C@H]1[C@@]3([C@@H](OC)C[C@H]2O)[C@@H]1C[C@@]2(O)[C@H](OC(=O)c3ccccc3)[C@@H]1[C@]4(O)[C@@H](O)[C@@H]2OC
inactive: inhibition (Liver microsomes) | Activity (WB-F344) | inhibition [1] | Activity (BGC-823) | Activity (A549) | Activity (MCF7) | Activity (KETR3) | Activity (Bel-7402) | Activity (HCT-8)

CCN1C[C@]2(COC)[C@H](O)C[C@H](OC)[C@]34C1[C@H]([C@H](OC)[C@H]23)[C@]1(OC)[C@H]2[C@@H](OC(=O)c3ccccc3)[C@](O)(C[C@]24O)[C@@H](OC)[C@@H]1O
inactive: inhibition (Liver microsomes) | Activity (WB-F344) | inhibition [1] | Activity (BGC-823) | Activity (A549) | Activity (MCF7) | Activity (KETR3) | Activity (Bel-7402) | Activity (HCT-8)

CCN1C[C@]2(COC)CC[C@H](OC)[C@]34C1[C@H]([C@H](OC)[C@H]23)[C@]1(OC(C)=O)[C@H]2[C@@H](OC(=O)c3ccccc3)[C@H](C[C@H]24)[C@@H](OC)[C@@H]1O
inactive: inhibition (Liver microsomes) | Activity (WB-F344) | inhibition [1] | Activity (BGC-823) | Activity (A549) | Activity (MCF7) | Activity (KETR3) | Activity (Bel-7402) | Activity (HCT-8)

CCN1C[C@]2(COC)CC[C@H](OC)[C@]34C1[C@H]([C@H](OC)[C@H]23)[C@@]1(O)C[C@H](OC)[C@@]2(O)C[C@@H]4[C@@H]1[C@H]2OC(=O)c1ccccc1
inactive: inhibition (Liver microsomes) | Activity (WB-F344) | inhibition [1] | Activity (BGC-823) | Activity (A549) | Activity (MCF7) | Activity (KETR3) | Activity (Bel-7402) | Activity (HCT-8)

CCN1C(=O)[C@]2(COC)CC[C@H](OC)[C@]34C1[C@H]([C@H](OC)[C@H]23)[C@]1(OC(C)=O)[C@H]2[C@@H](OC(=O)c3ccccc3)[C@](O)(C[C@H]24)[C@@H](OC)[C@@H]1O
inactive: inhibition (Liver microsomes) | Activity (WB-F344) | inhibition [1] | Activity (BGC-823) | Activity (A549) | Activity (MCF7) | Activity (KETR3) | Activity (Bel-7402) | Activity (HCT-8)

CCN1C[C@]2(COC)CC[C@H](OC)[C@]34C1[C@H]([C@H](OC)[C@H]23)[C@]1(OC(C)=O)[C@H]2[C@@H](OC(=O)c3ccccc3)[C@](O)(C[C@H]24)[C@@H](OC)[C@@H]1O
inactive: inhibition (Liver microsomes) | Activity (WB-F344) | inhibition [1] | Activity (BGC-823) | Activity (A549) | Activity (MCF7) | Activity (KETR3) | Activity (Bel-7402) | Activity (HCT-8)

CCN1C[C@]2(COC)CC[C@H](OC)[C@]34C1[C@H](C[C@H]23)[C@]1(O)[C@H]2[C@@H](OC(=O)c3ccccc3)[C@H](C[C@H]24)[C@@H](OC)[C@@H]1O
inactive: inhibition (Liver microsomes) | Activity (WB-F344) | inhibition [1] | Activity (BGC-823) | Activity (A549) | Activity (MCF7) | Activity (KETR3) | Activity (Bel-7402) | Activity (HCT-8)

CCN1C[C@]2(COC)CC[C@H](O)[C@]34C1[C@H]([C@H](OC)[C@H]23)[C@]1(O)[C@H]2[C@@H](OC(=O)c3ccccc3)[C@H](C[C@H]24)[C@@H](OC)[C@@H]1O
inactive: inhibition (Liver microsomes) | Activity (WB-F344) | inhibition [1] | Activity (BGC-823) | Activity (A549) | Activity (MCF7) | Activity (KETR3) | Activity (Bel-7402) | Activity (HCT-8)

CCN1C[C@]2(COC)CC[C@H](OC)[C@]34C1[C@H](C[C@H]23)[C@]1(O)[C@H]2[C@@H](OC(=O)c3ccccc3)[C@](O)(C[C@H]24)[C@@H](OC)[C@@H]1O
inactive: inhibition (Liver microsomes) | Activity (WB-F344) | inhibition [1] | Activity (BGC-823) | Activity (A549) | Activity (MCF7) | Activity (KETR3) | Activity (Bel-7402) | Activity (HCT-8)

CCN1C[C@]2(COC)CC[C@H](OC)[C@]34C1[C@H]([C@H](OC)[C@H]23)[C@]1(OC)[C@H]2[C@@H](OC(=O)c3ccccc3)[C@](O)(C[C@H]24)[C@@H](OC)[C@@H]1O (single isomer, unassigned; (-))
inactive: inhibition (Liver microsomes) | Activity (WB-F344) | inhibition [1] | Activity (BGC-823) | Activity (A549) | Activity (MCF7) | Activity (KETR3) | Activity (Bel-7402) | Activity (HCT-8)

CCN1C[C@]2(COC)[C@H](O)C[C@H](OC)[C@]34C1[C@H]([C@H](OC)[C@H]23)[C@]1(OC(C)=O)[C@H]2[C@@H](OC(=O)c3ccccc3)[C@](O)(C[C@]24O)[C@@H](OC)[C@@H]1O
inactive: inhibition (Liver microsomes) | Activity (WB-F344) | inhibition [1] | Activity (BGC-823) | Activity (A549) | Activity (MCF7) | Activity (KETR3) | Activity (Bel-7402) | Activity (HCT-8)
